Laboratory results from patent EP1399158B1, “NON-THERAPEUTIC METHOD OF SUPPRESSING OESTRUS IN MAMMALIAN NON-HUMAN ANIMAL” (Vetcare Oy, priority 2001, dated 2002).

What was measured:
beagle bitches = experiment: Medical trial of oestrus suppression in beagle bitches (oestrus signs, mating behaviour, vaginal cytology, side effects); type: in vivo
Method: (§1) A medical trial was conducted at University of Kuopio with six (6) beagle bitches the average weight of which was 10 kg and the age ranged from 1 year and 1 month to 3 years and 11 months. The dogs were given finrozole at a dose of 3 mg/dog/day from the first day of oestrus signs for 21 days. The development of oestrus signs were followed daily and serum samples collected twice a week. The sexual behaviour of a fertile male and the bitches was recorded. The male was allowed to mount and mate the bitches.

[1] = tested on: Estradiol-17-β and progesterone; experiment: Hormonal analyses of serum samples (estradiol assay/DPC, Coat-A-Count Progesterone/DPC) in the trial; type: in vivo; details: six beagle bitches, 3 mg/dog/day for 21 days
Method: as §1
Hormonal analyses were carried out at Swedish University of Agricultural Sciences in the Department of Clinical Chemistry Estradiol-17-β (the modified estradiol assay/DPC) and progesterone (Coat-A-Count Progesterone /DPC) were analysed.

[2] = six beagle bitches, 3 mg/dog/day for 21 days

N#Cc1ccc(C(C(O)Cc2ccc(F)cc2)n2cncn2)cc1 (single isomer, unassigned) [finrozole, 1-[1-(4-cyanophenyl)-3-(4-fluorophenyl)-2-hydroxypropyl]-1,2,4-triazole, diasteroisomer a + d]
bitches mated (oestrus continued) (beagle bitches; of the four bitches in which oestrus continued, fertile male allowed to mount and mate, 3 mg/dog/day for 21 days): Three of them were mated
bitches conceived (beagle bitches; of the three mated bitches, 3 mg/dog/day for 21 days): two conceived
oestrus signs according to vaginal cytology (beagle bitches; [2]): no difference could be detected
side effects during the treatment (beagle bitches; [2]): No side effects were seen
Oestrus signs (beagle bitches; six beagle bitches, 3 mg/dog/day from the first day of oestrus signs for 21 days): disappeared in two bitches of six
time after starting the treatment during which serum estrogen levels decreased [1]: 4 to 13 days
Progesterone levels ([1]; serum): increased in five bitches of six
serum estrogen levels ([1]; serum samples twice a week): decreased in all bitches
